Source: the supplement of paper PMC11061612

How the values were obtained:
Experiment in all cases: combination Emax (second highest fraction inhibited in the dose matrix, 72 h); higher = more inhibition; extreme values may be limits of the assay
[1] = test system: 639-V (Bladder Carcinoma)
Procedure, shortened: (§1)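 After 24 hours at 37°C and 5% CO2 in 1536-well plates, cells in DMEM/F12 or RPMI plus 10% FBS received two-drug dose matrices for 72 hours. Viability came from CellTiter-Glo 2.0 luminescence and was scaled as inhibition, anchored at 0 by vehicle wells and at 1 by blank wells. Combination Emax is taken as the second-highest inhibition in the matrix, and Bliss excess as the observed combination effect less EA + EB − EA·EB, with EA and EB the single-agent effects.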

[2] = test system: 8305C (Thyroid Gland Carcinoma)
Procedure, shortened: as §1

[3] = test system: CAL-51 (Breast Carcinoma)
Procedure, shortened: as §1

[4] = test system: CAL-54 (Kidney Carcinoma)
Procedure, shortened: as §1

[5] = test system: COLO-829 (Melanoma)
Procedure, shortened: as §1

[6] = test system: CTB-1 (B-Cell Non-Hodgkin's Lymphoma)
Procedure, shortened: as §1

[7] = test system: HMV-II (Melanoma)
Procedure, shortened: as §1

[8] = test system: Hs-633T (Other Solid Carcinomas)
Procedure, shortened: as §1

[9] = test system: KARPAS-231 (B-Cell Non-Hodgkin's Lymphoma)
Procedure, shortened: as §1

[10] = test system: LU-139 (Small Cell Lung Carcinoma)
Procedure, shortened: as §1

[11] = test system: Mewo (Melanoma)
Procedure, shortened: as §1

[12] = test system: NCI-H2461 (Mesothelioma)
Procedure, shortened: as §1

[13] = test system: NCI-H747 (Colorectal Carcinoma)
Procedure, shortened: as §1

[14] = test system: PCI-30 (Head and Neck Carcinoma)
Procedure, shortened: as §1

[15] = test system: RPMI-6666 (Non-Cancerous)
Procedure, shortened: as §1

[16] = test system: RT-112 (Bladder Carcinoma)
Procedure, shortened: as §1

[17] = test system: SU-DHL-6 (B-Cell Non-Hodgkin's Lymphoma)
Procedure, shortened: as §1

[18] = test system: SW1116 (Colorectal Carcinoma)
Procedure, shortened: as §1

[19] = test system: TE-4 (Esophageal Squamous Cell Carcinoma)
Procedure, shortened: as §1

[20] = test system: UMC-11 (Other Solid Carcinomas)
Procedure, shortened: as §1

SMILES | combination Emax [1] | combination Emax [2] | combination Emax [3] | combination Emax [4] | combination Emax [5] | combination Emax [6] | combination Emax [7] | combination Emax [8] | combination Emax [9] | combination Emax [10] | combination Emax [11] | combination Emax [12] | combination Emax [13] | combination Emax [14] | combination Emax [15] | combination Emax [16] | combination Emax [17] | combination Emax [18] | combination Emax [19] | combination Emax [20]
CN(C)CCCOc1ccc(-c2ccc3ncc4c(c3c2)n(C2CCOCC2)c(=O)n4C)cn1 [AZD0156] + C=CCn1c(=O)c2cnc(Nc3ccc(N4CCN(C)CC4)cc3)nc2n1-c1cccc(C(C)(C)O)n1 [AZD1775] (first compound max 1 µM, partner max 1 µM) | 0.204 | 0.924 | 0.728 | 0.642 | 0.099 | 0.898 | 0.401 | 0.769 | 0.988 | 0.59 | 0.47 | 0.674 | 0.414 | 0.265 | 0.923 | 0.514 | 0.699 | 0.235 | 0.324 | 0.377
Cc1c2c(nn1C)CSCc1cc(n(C)n1)CSc1cc(c3ccccc3c1)OCCCc1c(C(=O)O)n(C)c3c-2c(Cl)ccc13 [AZD5991] + C=CCn1c(=O)c2cnc(Nc3ccc(N4CCN(C)CC4)cc3)nc2n1-c1cccc(C(C)(C)O)n1 [AZD1775] (first compound max 1 µM, partner max 1 µM) | 0.448 | 0.646 | 0.915 | 0.702 | 0.291 | 0.916 | 0.487 | 0.711 | 1 | 0.555 | 0.496 | 0.712 | 0.598 | 0.317 | 0.93 | 0.981 | 1 | 0.378 | 0.801 | 0.784
Cc1c2c(nn1C)CSCc1cc(n(C)n1)CSc1cc(c3ccccc3c1)OCCCc1c(C(=O)O)n(C)c3c-2c(Cl)ccc13 [AZD5991] + C1CN(CCC1(C(=O)N[C@@H](CCO)C2=CC=C(C=C2)Cl)N)C3=NC=NC4=C3C=CN4 [Capivasertib] (first compound max 1 µM, 7x7, partner max 3 µM) | 0.177 | 0.319 | 0.792 | 0.351 | 0.222 | 0.42 | 0.198 | 0.216 | 1 | 0.268 | 0.199 | 0.464 | 0.392 | 0.237 | 0.7 | 0.858 | 1 | 0.102 | 0.81 | 0.29
CN(C)CCCOc1ccc(-c2ccc3ncc4c(c3c2)n(C2CCOCC2)c(=O)n4C)cn1 [AZD0156] + CCN(CCO)CCCOc1ccc2c(Nc3cc(CC(=O)Nc4cccc(F)c4)[nH]n3)ncnc2c1 [AZD2811] (first compound max 1 µM, 7x7, partner max 1 µM) | 0.179 | 0.29 | 0.196 | 0.134 | 0.069 | 0.501 | 0.164 | 0.373 | 0.563 | 0.279 | 0.153 | 0.195 | 0.167 | 0.192 | 0.551 | 0.205 | 0.478 | 0.0823 | 0.071 | 0.758
CC1(C)CCC(CN2CCN(c3ccc(C(=O)NS(=O)(=O)c4ccc(NCC5CCOCC5)c([N+](=O)[O-])c4)c(Oc4cnc5[nH]ccc5c4)c3)CC2)=C(c2ccc(Cl)cc2)C1 [Venetoclax] + Cc1cc2ncnn2cc1Nc1ncc2c(n1)n(C1CCOCC1)c(=O)n2C [AZD7648] (first compound max 1 µM, 7x7, partner max 10 µM) | 0.244 | 0.385 | 0.289 | 0.256 | 0.143 | 0.358 | 0.263 | 0.188 | 0.808 | 0.439 | 0.509 | 0.528 | 0.414 | 0.224 | 0.959 | 0.257 | 0.853 | 0.151 | 0.228 | 0.414
Cc1cc2ncnn2cc1Nc1ncc2c(n1)n(C1CCOCC1)c(=O)n2C [AZD7648] + C[C@@H]1COCCN1C2=NC(=NC(=C2)C3(CC3)[S@](=N)(=O)C)C4=C5C=CNC5=NC=C4 [AZD6738] (first compound max 10 µM, 7x7, partner max 10 µM) | 0.404 | 0.609 | 0.923 | 0.769 | 0.286 | 0.802 | 0.442 | 0.855 | 0.837 | 0.396 | 0.5 | 0.71 | 0.408 | 0.686 | 0.797 | 0.93 | 0.613 | 0.267 | 0.531 | 0.537
CN(CCO)CC[C@H](CSc1ccccc1)Nc1ccc(S(=O)(=O)NC(=O)c2ccc(N3CCC([C@@H](O)c4ccccc4-c4ccc(Cl)cc4)CC3)cc2)cc1S(=O)(=O)C(F)(F)F [AZD4320] + C1CN(CCC1(C(=O)N[C@@H](CCO)C2=CC=C(C=C2)Cl)N)C3=NC=NC4=C3C=CN4 [Capivasertib] (first compound max 1 µM, 7x7, partner max 3 µM) | 0.154 | 0.506 | 0.504 | 0.338 | 0.118 | 0.295 | 0.169 | 0.298 | 1 | 0.912 | 0.204 | 0.429 | 0.387 | 0.191 | 0.916 | 0.147 | 1 | 0.139 | 0.511 | 0.508
Cc1c2c(nn1C)CSCc1cc(n(C)n1)CSc1cc(c3ccccc3c1)OCCCc1c(C(=O)O)n(C)c3c-2c(Cl)ccc13 [AZD5991] + Cc1cc2ncnn2cc1Nc1ncc2c(n1)n(C1CCOCC1)c(=O)n2C [AZD7648] (first compound max 1 µM, 7x7, partner max 10 µM) | 0.298 | 0.432 | 0.365 | 0.367 | 0.144 | 0.472 | 0.273 | 0.391 | 1 | 0.243 | 0.283 | 0.422 | 0.392 | 0.323 | 0.541 | 0.854 | 1 | 0.168 | 0.517 | 0.625
CCN(CCO)CCCOc1ccc2c(Nc3cc(CC(=O)Nc4cccc(F)c4)[nH]n3)ncnc2c1 [AZD2811] + C=CCn1c(=O)c2cnc(Nc3ccc(N4CCN(C)CC4)cc3)nc2n1-c1cccc(C(C)(C)O)n1 [AZD1775] (first compound max 1 µM, partner max 1 µM) | 0.265 | 0.89 | 0.815 | 0.622 | 0.274 | 0.876 | 0.473 | 0.649 | 0.993 | 0.567 | 0.402 | 0.638 | 0.414 | 0.344 | 0.902 | 0.531 | 0.734 | 0.208 | 0.171 | 0.832
CC1(C)CCC(CN2CCN(c3ccc(C(=O)NS(=O)(=O)c4ccc(NCC5CCOCC5)c([N+](=O)[O-])c4)c(Oc4cnc5[nH]ccc5c4)c3)CC2)=C(c2ccc(Cl)cc2)C1 [Venetoclax] + C=CCn1c(=O)c2cnc(Nc3ccc(N4CCN(C)CC4)cc3)nc2n1-c1cccc(C(C)(C)O)n1 [AZD1775] (first compound max 1 µM, partner max 1 µM) | 0.428 | 0.639 | 0.851 | 0.795 | 0.235 | 0.897 | 0.484 | 0.719 | 1 | 0.831 | 0.621 | 0.731 | 0.479 | 0.736 | 0.996 | 0.978 | 0.941 | 0.23 | 0.555 | 0.487
Cc1cc2ncnn2cc1Nc1ncc2c(n1)n(C1CCOCC1)c(=O)n2C [AZD7648] + O=C(c1cc(Cc2n[nH]c(=O)c3ccccc23)ccc1F)N1CCN(C(=O)C2CC2)CC1 [Olaparib] (first compound max 10 µM, 7x7, partner max 10 µM) | 0.182 | 0.31 | 0.265 | 0.218 | 0.119 | 0.331 | 0.252 | 0.313 | 0.269 | 0.131 | 0.138 | 0.278 | 0.241 | 0.198 | 0.584 | 0.143 | 0.346 | 0.0602 | 0.167 | 0.244
CN(CCO)CC[C@H](CSc1ccccc1)Nc1ccc(S(=O)(=O)NC(=O)c2ccc(N3CCC([C@@H](O)c4ccccc4-c4ccc(Cl)cc4)CC3)cc2)cc1S(=O)(=O)C(F)(F)F [AZD4320] + CCN(CCO)CCCOc1ccc2c(Nc3cc(CC(=O)Nc4cccc(F)c4)[nH]n3)ncnc2c1 [AZD2811] (first compound max 1 µM, 7x7, partner max 1 µM) | 0.303 | 0.386 | 0.615 | 0.163 | 0.196 | 0.503 | 0.18 | 0.54 | 1 | 0.914 | 0.303 | 0.174 | 0.414 | 0.284 | 0.982 | 0.913 | 0.958 | 0.144 | 0.0998 | 0.93
